Calls of active or inactive are those of the source. Rule as the data show it, for most assays here: actives have a measured EC50 and inactives only a lower limit.

For test [1], the system named is BJ. The test can be described thus: BJ-TERT-LT-ST fibroblast viability loss – cell-based, RAS-independent, luminescence, dose response (AID 1935).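 Also: BJ fibroblasts immortalized with TERT plus LT and ST oncogenes.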 Format: functional. The settings on record: Homo sapiens.
In test [2] the test system is BJ. The test can be described thus: BJ-TERT fibroblast viability loss – cell-based, RAS-independent, luminescence, dose response (AID 1933). Format: functional. The settings on record: Homo sapiens.
Test [3] is described as follows: alpha-synuclein stem-loop translation blockers – luminescence, H4 neuroglioblastoma cells, dose confirmation, confirmation (AID 2454).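 Also: H4 neuroglioblastoma cells carrying an alpha-synuclein 5'UTR luciferase reporter; potency for inhibition of the luciferase signal.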 Format: functional, cell-based.
A short description of test [4]: toxicity toward HEK293 cells – cell-based, dry powder samples, cytotoxicity control, dose response (AID 720567). Format: functional.
The nature of test [5]: alpha-synuclein stem-loop luciferase translation blockers – H4 neuroglioma cells, luminescence, confirmation (AID 1988). Type of test: functional, cell-based.
The test system of test [6] is BJ. The test is described as follows: cells. Type of test: functional, cell-based. The note with it: Homo sapiens.
Test [7] in a line: luciferase reporter signal reduction – luminescence, H4-C neuroglioblastoma cells, dose response (AID 2458).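 Also: H4 neuroglioblastoma cells stably carrying a luciferase reporter gene fusion.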 Format: functional, cell-based.
A short description of test [8]: DRD fibroblast viability loss – cell-based, non-viral oncogenic, luminescence, dose response (AID 1934). Type of test: functional. The note with it: Homo sapiens.
The nature of test [9]: Luminescence Cell-Based Dose Response HTS to Identify Inhibitors of 5'UTR Stem-Loop Driven Prion Protein mRNA Translation in H4 Neuroglioblastoma Cells. [Related pubchem assays: 1827 (Project Summary), 1813 (Primary HTS)]. Type of test: functional.
Test [10] in a line: luciferase reporter signal suppression in cells – H4 neuroglioma cells, luminescence, dose response (AID 1990). Format: functional, cell-based.
A further test is described as follows: cells. Format: functional, cell-based.
A further test concerns the target Cytochrome P450 2C9 (Homo sapiens, UniProt P11712). The settings on record: Potency.
Test [11] concerns the target T1, Neuropeptides B/W receptor type 1 (Homo sapiens, UniProt P48145).
T1 sequence (P48145 whole entry): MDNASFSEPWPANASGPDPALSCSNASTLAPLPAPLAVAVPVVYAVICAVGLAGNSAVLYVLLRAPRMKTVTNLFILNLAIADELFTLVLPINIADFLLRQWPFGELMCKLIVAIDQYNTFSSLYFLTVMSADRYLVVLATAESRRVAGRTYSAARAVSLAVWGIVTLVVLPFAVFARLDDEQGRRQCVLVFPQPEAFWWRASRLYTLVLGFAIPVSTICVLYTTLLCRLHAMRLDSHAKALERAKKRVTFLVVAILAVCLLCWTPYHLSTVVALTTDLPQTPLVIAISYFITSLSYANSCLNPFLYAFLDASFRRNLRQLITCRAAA
The test can be described thus: Fluorescence-based dose response cell-based high throughput screening assay to identify antagonists of the G-protein coupled receptor 7 (GPR7). [Related pubchem assays: 1952 (Screening assay (GPR7 antagonists).), 1880 (Summary AID.)]. Type of test: functional.

In test [12] the target is Melanin-concentrating hormone receptor 1 (Homo sapiens, UniProt Q99705). The test is described as follows: Fluorescence-based counterscreen for antagonists of the G-protein coupled receptor 7 (GPR7): cell-based high throughput dose response assay to identify antagonists of the melanin-concentrating hormone receptor 1 (MCHR1). Type of test: functional. Background: The purpose of a counterscreen is to sort out artefacts and off-target activity.
Melanin-concentrating hormone receptor 1, sequence (Q99705 whole entry): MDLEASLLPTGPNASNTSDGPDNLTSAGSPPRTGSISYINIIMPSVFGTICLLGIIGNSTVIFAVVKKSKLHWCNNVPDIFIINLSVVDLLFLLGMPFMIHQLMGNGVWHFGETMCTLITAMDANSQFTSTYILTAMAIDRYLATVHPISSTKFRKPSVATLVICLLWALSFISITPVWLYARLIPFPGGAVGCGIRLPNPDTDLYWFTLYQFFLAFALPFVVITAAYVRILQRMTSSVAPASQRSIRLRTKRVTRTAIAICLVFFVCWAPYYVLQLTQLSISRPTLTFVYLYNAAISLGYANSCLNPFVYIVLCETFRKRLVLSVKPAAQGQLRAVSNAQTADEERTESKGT

Test [13] concerns the target T2, Rac GTPase-activating protein 1 (Homo sapiens, UniProt Q9H0H5).
T2 sequence (Q9H0H5 whole entry): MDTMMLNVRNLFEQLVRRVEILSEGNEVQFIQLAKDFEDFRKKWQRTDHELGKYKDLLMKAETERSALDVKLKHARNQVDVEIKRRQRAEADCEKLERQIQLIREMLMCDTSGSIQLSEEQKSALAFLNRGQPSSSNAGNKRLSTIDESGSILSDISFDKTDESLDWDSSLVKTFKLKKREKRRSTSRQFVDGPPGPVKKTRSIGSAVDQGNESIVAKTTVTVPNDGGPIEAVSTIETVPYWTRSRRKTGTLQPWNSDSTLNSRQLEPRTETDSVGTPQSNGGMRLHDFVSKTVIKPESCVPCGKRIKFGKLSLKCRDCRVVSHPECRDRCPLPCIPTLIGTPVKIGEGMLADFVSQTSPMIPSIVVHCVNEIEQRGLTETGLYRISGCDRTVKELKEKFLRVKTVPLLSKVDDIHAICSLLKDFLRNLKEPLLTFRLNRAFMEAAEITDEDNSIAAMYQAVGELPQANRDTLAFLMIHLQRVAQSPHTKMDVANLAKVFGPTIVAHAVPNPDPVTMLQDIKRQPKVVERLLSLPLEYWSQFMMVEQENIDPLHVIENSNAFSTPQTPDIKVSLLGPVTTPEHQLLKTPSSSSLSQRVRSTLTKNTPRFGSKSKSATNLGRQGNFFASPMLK
The test is described as follows: blockers of MgcRacGAP-driven Rac1 GTP hydrolysis – biochemical, ADP Hunter fluorescence, primary and confirmatory, confirmation (AID 624330). Format: functional.

Test [14] has as its target Lysosomal acid glucosylceramidase (Homo sapiens, UniProt P04062). The test can be described thus: Dose response cell-based high throughput screening assay to identify enhancers of beta-glucosidase activity. [Related pubchem assays: 784 ]. Type of test: functional.

Cytochrome P450 2C9, sequence (P11712 whole entry): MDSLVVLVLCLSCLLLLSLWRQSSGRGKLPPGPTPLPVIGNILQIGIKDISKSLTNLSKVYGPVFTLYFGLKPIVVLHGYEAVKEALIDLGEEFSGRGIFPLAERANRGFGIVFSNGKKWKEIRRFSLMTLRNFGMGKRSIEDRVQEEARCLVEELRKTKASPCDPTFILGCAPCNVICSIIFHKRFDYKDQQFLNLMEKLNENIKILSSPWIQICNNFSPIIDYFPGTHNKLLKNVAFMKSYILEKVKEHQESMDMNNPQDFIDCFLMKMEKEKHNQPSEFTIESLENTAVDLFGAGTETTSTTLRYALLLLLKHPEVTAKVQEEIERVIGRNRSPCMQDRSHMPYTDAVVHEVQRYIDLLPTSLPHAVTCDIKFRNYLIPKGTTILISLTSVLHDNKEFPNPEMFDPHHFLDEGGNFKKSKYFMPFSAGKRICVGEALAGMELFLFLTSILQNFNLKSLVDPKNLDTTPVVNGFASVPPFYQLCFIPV
Lysosomal acid glucosylceramidase, sequence (P04062 whole entry): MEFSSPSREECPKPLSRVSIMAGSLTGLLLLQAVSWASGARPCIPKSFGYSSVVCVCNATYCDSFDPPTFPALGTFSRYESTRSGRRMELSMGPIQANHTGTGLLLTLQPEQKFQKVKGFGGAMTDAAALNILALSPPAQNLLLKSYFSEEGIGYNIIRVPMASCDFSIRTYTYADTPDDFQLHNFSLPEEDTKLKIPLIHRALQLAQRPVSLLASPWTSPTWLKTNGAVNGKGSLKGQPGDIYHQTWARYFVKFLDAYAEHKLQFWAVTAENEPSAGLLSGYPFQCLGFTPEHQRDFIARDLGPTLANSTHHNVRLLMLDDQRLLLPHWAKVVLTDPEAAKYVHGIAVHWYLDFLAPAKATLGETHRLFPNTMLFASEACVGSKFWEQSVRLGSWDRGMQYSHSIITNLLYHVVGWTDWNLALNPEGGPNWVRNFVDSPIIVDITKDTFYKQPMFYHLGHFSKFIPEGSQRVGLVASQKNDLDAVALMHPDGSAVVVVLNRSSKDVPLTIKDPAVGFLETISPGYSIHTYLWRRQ

The term EC50 denotes the concentration that produces a half-maximal response. For orientation: AC50 means the concentration giving half of the maximal activity seen. As for `CCOc1ccc(NC(=O)c2cc(OC)nc3ccccc23)cc1`, the concentration for a half-maximal effect (EC50) is 1380 nM (inconclusive) in the test on BJ [1]; 1110 nM (active) in the test with BJ [2]; 1160 nM (active) in [3]; < 100 nM (active) in test [5]; 69800 nM (inconclusive) in the test with BJ [6]; 965 nM (active) in test [7]. The concentration for a half-maximal effect (EC50) in test [8] is 894 nM (active); in [9] it was 303 nM (active); in test [10], 4730 nM (active); in “cells”, 1960 nM (active). Besides, the AC50 in test [4] was > 30000 nM (inactive).
As to `C/C=C/OC(=O)NC(c1ccccc1)[C@]1(C(C)=O)CCOC1=O` (stereo partly specified), the concentration at half-maximal activity (AC50) on Cytochrome P450 2C9 is 794 nM (inconclusive).
By IC50 is commonly meant the midpoint of a concentration-inhibition curve. For the compound `CN(C)c1ccc(Nc2ccc([N+](=O)[O-])cn2)cc1`, the concentration for half-maximal inhibition (IC50) in test [11] is > 43800 nM (not active); in [12], > 43800 nM (not active); in test [13], 36400 nM (active).
`CC(C)(C)NC(=O)CSc1nncn1NCc1ccccc1`: in test [14], the EC50 was > 50000 nM (not active).

The record behind these values is ChEMBL document CHEMBL1201862, “PubChem BioAssay data set” (2004).
